Assay results published in patent US20260265262A1, “CDK2 INHIBITORS AND METHODS OF USING THE SAME” (Cedilla Therapeutics, Inc., priority 2022, published 2026).
Read-outs that look alike come from different tables or passages of the source.

Assays:
[1] = target: CDK2/Cyclin E1 (Homo sapiens, UniProt P24941); test: ADP-Glo Luminescent Kinase Assay (CDK2/E1-37C); format: biochemical; details: 0.18 nM CDK2/Cyclin E1, 100 μM ATP, 1.5 μM Histone H1, 37° C., 60 min pre-incubation
Method: Inhibition of CDK2/Cyclin E1 activity by the presence of small molecules was evaluated using ADP-Glo Luminescent Kinase Assay (Promega). Activated CDK2/Cyclin E1 was incubated with its substrate Histone H1 (SignalChem H10-54N) in the kinase reaction buffer (100 μM ATP, 50 mM HEPES pH 7.5, 10 mM MgCl2, 1 mM EDTA, 2 mM DTT, 0.01% Brij35, 0.5 mg/mL BSA). Luminescence was recorded with an Envision plate reader (PerkinElmer).
Dose titrations of inhibitors in 100% DMSO were combined with 0.36 nM CDK2/Cyclin E1 in reaction buffer. The mixtures were incubated for 60 minutes at 37° C. before the addition of ATP and Histone H1 substrate to initiate the kinase reaction. The final conditions were 0.18 nM CDK2/Cyclin E1, 100 μM ATP, and 1.5 μM Histone H1. The reactions were incubated at 37° C. for 90 minutes before being stopped with the addition of ADP-Glo reagent. This mixture was incubated at room temperature for 60 minutes before Kinase Detection Solution is added to generate luminescence. The stopped reactions were analyzed on an Envision plate reader. The conversion ratios were normalized to yield % activity, plotted against compound concentration, and fit to a four-parameter equation to determine the IC50 for each compound.

[2] = test system: Kuramochi cells; test: IncuCyte cell proliferation assay; format: cell-based
Method: IncuCyte® assay was used to measure the effect of disclosed compounds on cell proliferation. Fluorescent microscopy images of cells were taken immediately after compound treatment and 72 hours later. Image analysis software was used to obtain cell counts as a function of compound concentration. Kuramochi cells labeled with mApple-H2B were seeded on 384-well assay-ready plates. Plates were placed in an IncuCyte® (Sartorius) and scanned at 0 and 72 hours. IncuCyte® software was used to count the number of fluorescent nuclei in each well. The fold change in cell count from 0 to 72 hours in wells treated with increasing compounds concentrations (10 pts, 1/2 log dilution, 20 μM top concentration) was normalized to DMSO control wells. The normalized cell counts were fit with dose response curves and a […] was calculated.

[3] = read-out: ADPGLO (CDK2/E1-37C): IC50
[4] = Kuramochi cells labeled with mApple-H2B, cell count 0 to 72 hours, 20 μM top concentration, read-out: IncuCyte Kuramochi RB-WT: IC50
[5] = read-out: IncuCyte Kuramochi RB-WT: IC50 (μM)

SMILES: C[C@@H](OCC12CCC(CC1)OC2)[C@H](NC(=O)[C@@H]1CN(C(=O)c2cnn(Cc3ccccc3C(=O)O)c2)CC12CN(C(=O)C1(C(F)(F)F)CC1)C2)C(=O)N1CCN(Cc2ccc(C(F)(F)F)cc2)CC1 [Example I-14, 2-((4-((S)-8-(((2S,3R)-3-((2-oxabicyclo[2.2.2]octan-4-yl)methoxy)-1-oxo-1-(4-(4-(trifluoromethyl)benzyl)piperazin-1-yl)butan-2-yl)carbamoyl)-2-(1-(trifluoromethyl)cyclopropane-1-carbonyl)-2,6-diazaspiro[3.4]octane-6-carbonyl)-1H-pyrazol-1-yl)methyl)benzoic acid]
- IC50 [1, 3]: < 0.5 µM
- IC50 [2, 4]: > 20 µM

SMILES: C[C@@H](OCC12CCC(CC1)OC2)[C@H](NC(=O)[C@@H]1CN(C(=O)c2cnn(Cc3ccc(C(F)(F)F)cc3)c2)CC12CN(C(=O)C1(C(F)(F)F)CC1)C2)C(=O)NCCc1nnn[nH]1 [Example I-16]
- IC50 [1, 3]: 5 to 10 µM
- IC50 [2, 4]: > 20 µM

SMILES: COC(=O)C1CCN(C(=O)[C@@H](NC(=O)[C@@H]2CN(C(=O)c3cnn(Cc4ccccc4)c3)CC23CN(C(=O)[C@H]2CC2(C)C)C3)[C@@H](C)OCC2CCCCC2)CC1 [Example I-17]
- IC50 [1, 3]: < 0.5 µM
- IC50 [2, 4]: < 0.5 µM

SMILES: C[C@@H](OCC1CCCCC1)[C@H](NC(=O)[C@@H]1CN(C(=O)c2cnn(Cc3ccccc3)c2)CC12CN(C(=O)[C@H]1CC1(C)C)C2)C(=O)NS(C)(=O)=O [Example I-18]
- IC50 [1, 3]: < 0.5 µM
- IC50 [2, 4]: > 20 µM

SMILES: N#Cc1ccc(Cn2cc(C(=O)N3CC(C(=O)N[C@H](COCC45CCC(CC4)OC5)c4ccc(C(=O)O)cc4)C4(C3)CN(C(=O)C3(C(F)(F)F)CC3)C4)cn2)cc1 (stereo partly drawn) [Example I-19]
- IC50 [1, 3]: > 10 µM
- IC50 [2, 4]: > 20 µM

SMILES: COC(=O)c1ccc([C@@H](COCC23CCC(CC2)OC3)NC(=O)C2CN(C(=O)c3cnn(Cc4ccc(C#N)cc4)c3)CC23CN(C(=O)C2(C(F)(F)F)CC2)C3)cc1 (stereo partly drawn) [Example I-20]
- IC50 [1, 3]: 5 to 10 µM
- IC50 [2, 4]: > 20 µM

SMILES: COC(=O)CC1CN(C(=O)[C@@H]2CN(C(=O)c3cncs3)CC23CN(C(=O)[C@H]2CC2(C)C)C3)CCN1CC1CCCCC1 (stereo partly drawn) [Example I-21]
- IC50 [1, 3]: > 10 µM
- IC50 [2, 4]: > 20 µM

SMILES: COc1ccc(S(=O)(=O)NC(=O)[C@@H](NC(=O)[C@@H]2CN(C(=O)c3cnn(Cc4ccccc4)c3)CC23CN(C(=O)[C@H]2CC2(C)C)C3)[C@@H](C)OCC2CCCCC2)cc1 [Example I-22]
- IC50 [1, 3]: < 0.5 µM
- IC50 [2, 4]: 0.5 to 5 µM

SMILES: N#Cc1ccc(Cn2cc(C(=O)N3CC(C(=O)N[C@@H](COCC45CCC(CC4)OC5)c4ccc(C(=O)O)cc4)C4(C3)CN(C(=O)C3(C(F)(F)F)CC3)C4)cn2)cc1 (stereo partly drawn) [Example I-23, 4-((1R)-2-((2-oxabicyclo[2.2.2]octan-4-yl)methoxy)-1-(6-(1-(4-cyanobenzyl)-1H-pyrazole-4-carbonyl)-2-(1-(trifluoromethyl)cyclopropane-1-carbonyl)-2,6-diazaspiro[3.4]octane-8-carboxamido)ethyl)benzoic acid]
- IC50 [1, 3]: > 10 µM
- IC50 [2, 4]: > 20 µM

SMILES: COC(=O)c1ccc([C@H](COCC23CCC(CC2)OC3)NC(=O)C2CN(C(=O)c3cnn(Cc4ccc(C#N)cc4)c3)CC23CN(C(=O)C2(C(F)(F)F)CC2)C3)cc1 (stereo partly drawn) [Example I-24, methyl 4-((1R)-2-((2-oxabicyclo[2.2.2]octan-4-yl)methoxy)-1-(6-(1-(4-cyanobenzyl)-1H-pyrazole-4-carbonyl)-2-(1-(trifluoromethyl)cyclopropane-1-carbonyl)-2,6-diazaspiro[3.4]octane-8-carboxamido)ethyl)benzoate]
- IC50 [1, 3]: 5 to 10 µM
- IC50 [2, 4]: > 20 µM

SMILES: C[C@@H](OCC12CCC(CC1)OC2)[C@H](NC(=O)[C@@H]1CN(C(=O)c2cnn(Cc3ccc(C(F)(F)F)cc3)c2)CC12CN(C(=O)C1(C(F)(F)F)CC1)C2)C(=O)N1CCC(C#N)CC1 [Example I-25, (S)—N-((2S,3R)-3-((2-oxabicyclo[2.2.2]octan-4-yl)methoxy)-1-(4-cyanopiperidin-1-yl)-1-oxobutan-2-yl)-6-(1-(4-(trifluoromethyl)benzyl)-1H-pyrazole-4-carbonyl)-2-(1-(trifluoromethyl)cyclopropane-1-carbonyl)-2,6-diazaspiro[3.4]octane-8-carboxamide]
- IC50 [1, 3]: < 0.5 µM
- IC50 [2, 4]: > 20 µM

SMILES: C[C@@H](OCC1CCCCC1)[C@H](NC(=O)[C@@H]1CN(C(=O)c2cnn(Cc3ccccc3)c2)CC12CN(C(=O)[C@H]1CC1(C)C)C2)C(=O)NS(=O)(=O)c1ccc(F)cc1F [Example I-26, (S)-6-(1-benzyl-1H-pyrazole-4-carbonyl)-N-((2S,3R)-3-(cyclohexylmethoxy)-1-((2,4-difluorophenyl)sulfonamido)-1-oxobutan-2-yl)-2-((S)-2,2-dimethylcyclopropane-1-carbonyl)-2,6-diazaspiro[3.4]octane-8-carboxamide]
- IC50 [1, 3]: < 0.5 µM
- IC50 [2, 4]: 0.5 to 5 µM

SMILES: COP(=O)(CCNC(=O)[C@@H](NC(=O)[C@@H]1CN(C(=O)c2cnn(Cc3ccccc3)c2)CC12CN(C(=O)[C@H]1CC1(C)C)C2)[C@@H](C)OCC1CCCCC1)OC [Example I-27]
- IC50 ([1]; ADPGLO (CDK2/E1-37C): IC50 (μM)): < 0.5 µM
- IC50 [2, 5]: 0.5 to 5 µM

SMILES: C[C@@H](OCC1CCCCC1)[C@H](NC(=O)[C@@H]1CN(C(=O)c2cnn(Cc3ccccc3)c2)CC12CN(C(=O)[C@H]1CC1(C)C)C2)C(=O)N1CCN(c2ccc(C(=O)O)cc2)CC1 [Example I-28]
- IC50 [1, 3]: < 0.5 µM
- IC50 [2, 4]: 0.5 to 5 µM

SMILES: C[C@@H](OCC1CCCCC1)[C@H](NC(=O)[C@@H]1CN(C(=O)c2cnn(Cc3ccc(C(F)(F)F)cc3)c2)CC12CN(C(=O)[C@H]1CC1(C)C)C2)C(=O)N1CCC(c2ccc(C(=O)O)cc2)CC1 [Example I-29]
- IC50 [1, 3]: < 0.5 µM
- IC50 [2, 5]: 0.5 to 5 µM

SMILES: C[C@@H](OCC1CCCCC1)[C@H](NC(=O)[C@@H]1CN(C(=O)c2cnn(CC3CCCCC3)c2)CC12CN(C(=O)[C@H]1CC1(C)C)C2)C(=O)N1CCC(c2ccc(C(=O)O)cc2)CC1 [Example I-30, 4-(1-(O-(cyclohexylmethyl)-N—((S)-6-(1-(cyclohexylmethyl)-1H-pyrazole-4-carbonyl)-2-((S)-2,2-dimethylcyclopropane-1-carbonyl)-2,6-diazaspiro[3.4]octane-8-carbonyl)-L-threonyl)piperidin-4-yl)benzoic acid]
- IC50 [1, 3]: < 0.5 µM
- IC50 [2, 4]: 0.5 to 5 µM

SMILES: COC(=O)c1ccc(N2CCN(C(=O)[C@@H](NC(=O)[C@@H]3CN(C(=O)c4cnn(Cc5ccccc5)c4)CC34CN(C(=O)[C@H]3CC3(C)C)C4)[C@@H](C)OCC3CCCCC3)CC2)cc1 [Example I-31]
- IC50 [1, 3]: < 0.5 µM
- IC50 [2, 4]: < 0.5 µM

SMILES: Cc1oc(=O)oc1COC(=O)C(C)(C)CNC(=O)[C@@H](NC(=O)[C@@H]1CN(C(=O)c2cnn(Cc3ccccc3)c2)CC12CN(C(=O)[C@H]1CC1(C)C)C2)[C@@H](C)OCC1CCCCC1 [Example I-32, (5-methyl-2-oxo-1,3-dioxol-4-yl)methyl 3-((2S,3R)-2-((S)-6-(1-benzyl-1H-pyrazole-4-carbonyl)-2-((S)-2,2-dimethylcyclopropane-1-carbonyl)-2,6-diazaspiro[3.4]octane-8-carboxamido)-3-(cyclohexylmethoxy)butanamido)-2,2-dimethylpropanoate]
- IC50 [1, 3]: < 0.5 µM
- IC50 [2, 4]: 5 to 20 µM

SMILES: C[C@@H](OCC1CCCCC1)[C@H](NC(=O)[C@@H]1CN(C(=O)c2cnn(Cc3ccccc3)c2)CC12CN(C(=O)[C@H]1CC1(C)C)C2)C(=O)NCCC(=O)NS(C)(=O)=O [Example I-33, (S)-6-(1-benzyl-1H-pyrazole-4-carbonyl)-N-((2S,3R)-3-(cyclohexylmethoxy)-1-((3-(methylsulfonamido)-3-oxopropyl)amino)-1-oxobutan-2-yl)-2-((S)-2,2-dimethylcyclopropane-1-carbonyl)-2,6-diazaspiro[3.4]octane-8-carboxamide]
- IC50 [1, 3]: < 0.5 µM
- IC50 [2, 4]: > 20 µM

SMILES: C[C@@H](OCC12CCC(CC1)OC2)[C@H](NC(=O)[C@@H]1CN(C(=O)c2cncs2)CC12CN(C(=O)C1(C(F)(F)F)CC1)C2)C(=O)N1CCC(c2nccs2)CC1 [Example I-34, (S)—N-((2S,3R)-3-((2-oxabicyclo[2.2.2]octan-4-yl)methoxy)-1-oxo-1-(4-(thiazol-2-yl)piperidin-1-yl)butan-2-yl)-6-(thiazole-5-carbonyl)-2-(1-(trifluoromethyl)cyclopropane-1-carbonyl)-2,6-diazaspiro[3.4]octane-8-carboxamide]
- IC50 [1, 3]: < 0.5 µM
- IC50 [2, 4]: 0.5 to 5 µM

SMILES: C[C@@H](OCC1CCCCC1)[C@H](NC(=O)[C@@H]1CN(C(=O)c2cnn(Cc3ccccc3)c2)CC12CN(C(=O)[C@H]1CC1(C)C)C2)C(=O)N1CCCC[C@@H]1C(=O)O [Example I-35]
- IC50 [1, 3]: < 0.5 µM
- IC50 [2, 4]: > 20 µM
